Source: ChEMBL document CHEMBL3808373 (Bioorg Med Chem Lett, 2016)

What was measured:
[1] = Ratio of drug level in brain to plasma in rat; assay type: ADME, cell-free; details: read-out: BPR
[2] = target: T1, Sodium channel protein type 2 subunit alpha (Homo sapiens, UniProt Q99250); experiment: Inhibition of 10 Hz stimulated Nav1.2 (unknown origin) by manual patch clamp method
[3] = target: T1, Sodium channel protein type 2 subunit alpha; experiment: Inhibition of 1 Hz stimulated Nav1.2 (unknown origin) by manual patch clamp method
[4] = Ratio of drug level in brain to plasma in dog; assay type: ADME, cell-free, Canis lupus familiaris; details: read-out: BPR
[5] = target: T2, Sodium channel protein type 1 subunit alpha (Homo sapiens, UniProt P35498); experiment: Inhibition of 10 Hz stimulated Nav1.1 (unknown origin) by manual patch clamp method
[6] = target: T2, Sodium channel protein type 1 subunit alpha; experiment: Inhibition of 1 Hz stimulated Nav1.1 (unknown origin) by manual patch clamp method
[7] = target: Voltage-gated inwardly rectifying potassium channel KCNH2 (Homo sapiens, UniProt Q12809); experiment: Inhibition of human ERG
[8] = Half life in dog microsomes; assay type: ADME, Canis lupus familiaris, Microsome
[9] = Half life in human microsomes; assay type: ADME, Microsome
[10] = target: T3, Nav1.5 (peak sodium current, use-dependent block) (Homo sapiens, UniProt Q14524); experiment: (§1) Inhibition of 3 Hz stimulated human Nav1.5alpha expressed in HEK293 cells assessed as use dependent block of peak sodium current at 1 uM with 3 compound additions at 60 sec intervals at holding potential -100 mV incubated for 320 sec after third compound addition followed by second period of 3 Hz stimulation by PatchXpress method relative to control; assay type: cell-based; details: HEK293 cells expressing human Nav1.5alpha
T3 sequence (Q14524 whole entry): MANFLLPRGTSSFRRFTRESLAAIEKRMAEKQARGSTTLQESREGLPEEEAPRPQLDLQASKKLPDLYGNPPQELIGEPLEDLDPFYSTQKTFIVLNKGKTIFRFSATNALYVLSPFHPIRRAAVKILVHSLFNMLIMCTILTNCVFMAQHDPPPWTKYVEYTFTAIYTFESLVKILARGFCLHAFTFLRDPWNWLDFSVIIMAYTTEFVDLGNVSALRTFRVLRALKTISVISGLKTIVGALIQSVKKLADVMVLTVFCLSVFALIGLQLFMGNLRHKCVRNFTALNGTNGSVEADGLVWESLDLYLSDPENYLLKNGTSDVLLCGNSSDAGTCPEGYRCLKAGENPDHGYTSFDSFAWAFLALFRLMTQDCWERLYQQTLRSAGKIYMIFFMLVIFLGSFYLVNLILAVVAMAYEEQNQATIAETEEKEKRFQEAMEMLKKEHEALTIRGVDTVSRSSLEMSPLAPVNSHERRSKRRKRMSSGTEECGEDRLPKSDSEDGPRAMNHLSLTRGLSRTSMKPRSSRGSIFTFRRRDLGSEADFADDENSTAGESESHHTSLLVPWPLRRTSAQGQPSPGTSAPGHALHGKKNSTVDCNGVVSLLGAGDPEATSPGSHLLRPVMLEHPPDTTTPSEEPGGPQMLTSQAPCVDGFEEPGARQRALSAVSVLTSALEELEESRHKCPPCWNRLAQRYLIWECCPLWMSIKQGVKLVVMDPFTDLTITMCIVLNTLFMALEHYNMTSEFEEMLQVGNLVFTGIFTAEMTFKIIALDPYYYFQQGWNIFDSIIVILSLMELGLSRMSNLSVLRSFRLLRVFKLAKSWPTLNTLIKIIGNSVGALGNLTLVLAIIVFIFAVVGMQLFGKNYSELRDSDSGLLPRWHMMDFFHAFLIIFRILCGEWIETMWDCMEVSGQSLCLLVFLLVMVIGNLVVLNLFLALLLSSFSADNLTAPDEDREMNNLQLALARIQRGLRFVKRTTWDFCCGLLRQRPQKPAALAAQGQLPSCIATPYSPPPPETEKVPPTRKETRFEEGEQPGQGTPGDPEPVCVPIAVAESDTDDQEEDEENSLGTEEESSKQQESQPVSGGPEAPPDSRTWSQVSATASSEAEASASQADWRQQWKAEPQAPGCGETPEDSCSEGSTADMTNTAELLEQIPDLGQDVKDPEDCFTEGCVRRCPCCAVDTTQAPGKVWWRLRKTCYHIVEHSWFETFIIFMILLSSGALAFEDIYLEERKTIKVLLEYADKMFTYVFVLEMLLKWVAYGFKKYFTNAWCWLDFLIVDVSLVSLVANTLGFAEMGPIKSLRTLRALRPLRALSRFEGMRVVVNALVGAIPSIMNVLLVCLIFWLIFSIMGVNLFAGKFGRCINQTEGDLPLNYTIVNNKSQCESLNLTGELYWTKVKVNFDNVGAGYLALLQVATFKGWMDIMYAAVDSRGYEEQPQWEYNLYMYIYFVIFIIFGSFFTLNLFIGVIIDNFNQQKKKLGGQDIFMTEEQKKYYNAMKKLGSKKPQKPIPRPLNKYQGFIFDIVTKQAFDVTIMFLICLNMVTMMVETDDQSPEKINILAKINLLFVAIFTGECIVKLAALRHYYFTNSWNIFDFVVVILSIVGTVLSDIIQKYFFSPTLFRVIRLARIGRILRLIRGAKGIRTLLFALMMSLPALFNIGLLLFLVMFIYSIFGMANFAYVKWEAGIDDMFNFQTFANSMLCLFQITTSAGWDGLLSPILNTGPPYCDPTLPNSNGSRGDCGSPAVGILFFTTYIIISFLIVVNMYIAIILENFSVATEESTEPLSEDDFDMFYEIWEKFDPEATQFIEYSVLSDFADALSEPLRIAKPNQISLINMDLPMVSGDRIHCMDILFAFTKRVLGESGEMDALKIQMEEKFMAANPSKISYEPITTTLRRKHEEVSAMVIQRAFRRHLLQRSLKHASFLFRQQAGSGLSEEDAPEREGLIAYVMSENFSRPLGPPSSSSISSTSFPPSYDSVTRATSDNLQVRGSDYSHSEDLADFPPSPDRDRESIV

[11] = target: T4, Sodium channel protein type 5 subunit alpha (Homo sapiens, UniProt Q14524); details: HEK293, human, read-out: INH
T4 sequence (Q14524 whole entry): as above
Description: Inhibition of 0.1 Hz stimulated human Nav1.5alpha expressed in HEK293 cells assessed as inhibition of late sodium current at 10 uM with 3 compound additions for 7 to 8 mins at holding potential -120 mV in presence of late sodium current activator tefluthrin/ATX2 measured immediately after third compound addition by PatchXpress method relative to control

[12] = Half life in rat microsomes; assay type: ADME, Microsome
[13] = target: T2, Sodium channel protein type 1 subunit alpha; experiment: Inhibition of 10 Hz stimulated Nav1.1 (unknown origin) assessed as inhibition of peak sodium current at 10 uM by automated patch clamp method relative to control
[14] = target: T4, Sodium channel protein type 5 subunit alpha; experiment: (§2) Inhibition of 0.1 Hz stimulated human Nav1.5alpha expressed in HEK293 cells assessed as inhibition of late sodium current with 3 compound additions for 7 to 8 mins at holding potential -120 mV in presence of late sodium current activator tefluthrin/ATX2 measured immediately after third compound addition by PatchXpress method; assay type: cell-based
[15] = Lipophilicity, log D of compound; assay type: physicochemical; details: octanol/water
[16] = target: T3, Nav1.5 (peak sodium current, use-dependent block); experiment: as §1, with “at 10” for “at 1”; assay type: cell-based; details: HEK293 cells expressing human Nav1.5alpha
[17] = target: T4, Sodium channel protein type 5 subunit alpha; experiment: as §2, with “sodium current at 300 nM with 3” for “sodium current with 3”, “PatchXpress method relative to control” for “PatchXpress method”; assay type: cell-based

Row | half-life [8] [h] | half-life [9] [h] | half-life [12] [h] | inhibition [13] [%] | SMILES | inhibition at 320 s, 1 µM [10] [%] | inhibition at 10 µM [11] [%] | IC50 [14] [µM] | other results
1 |  |  |  |  | FC(F)(F)Oc1ccc(-c2ccc3nnc(C(F)(F)F)n3c2)cc1 |  |  |  | Kp [1]: 5; IC50 [2]: 7.9 µM; IC50 [3]: 0.4 µM; Kp [4]: 3; IC50 [5]: 0.4 µM; IC50 [6]: > 10 µM; IC50 [7]: > 10 µM
2 | 4.55 | 6.58 | 0.717 | 40 | O=c1[nH]nc2ccc(-c3ccc(Oc4ccc(F)cc4)cc3)cn12 | 28 | ≥ 70 | 1900 | 
3 |  |  |  |  | O=c1n(Cc2nc(-c3c(Cl)cccc3Cl)no2)nc2ccc(-c3ccc(OC(F)(F)F)cc3)cn12 |  | ≥ 70 | 3.5 | 
4 |  |  |  |  | Cn1cnc(Cn2nc3ccc(-c4ccc(OC(F)(F)F)cc4)cn3c2=O)n1 |  |  | > 10 | 
5 | 1.57 | 0.75 | 0.567 | 42 | Cc1noc(Cn2nc3ccc(-c4ccc(Oc5ccc(Cl)cc5)cc4)cn3c2=O)n1 | 47 | ≥ 70 | 134 | logD [15]: 3.4
6 | 3.17 | 6.5 | 1.48 |  | O=c1[nH]nc2ccc(-c3ccc(OC(F)(F)F)cc3)cn12 |  | ≥ 70 | 1.9 | inhibition at 320 s, 10 µM [16]: 24%
7 | 3.8 | 4.8 | 0.4 | 44 | Cc1cnc(Cn2nc3ccc(-c4ccc(OC(F)(F)F)cc4)cn3c2=O)o1 |  | ≥ 70 | 2.5 | 
8 | 5.9 | 6.58 | 6.5 | 79 | Cc1nc(Cn2nc3ccc(-c4ccc(Oc5ccc(Cl)cc5)cc4)cn3c2=O)no1 | 40 | ≥ 70 |  | inhibition at 0.3 µM [17]: 60%
9 | 4.78 | 6.58 | 6.58 | 56 | O=c1n(Cc2nnc(C3CC3)o2)nc2ccc(-c3ccc(Oc4ccc(F)cc4)cc3)cn12 | 69 | ≥ 70 | 740 | 
